Phosphorus/Metal and thickness of monolayer data for one compound are collected here from US11000627B2, “Treatment of implants with phosphonic acid compounds” (Nano Bridging Molecules SA, priority 2016, dated 2021).

Data set [1] in a line: XPS phosphorus over metal ratio (surface coverage) on Titanium grade 23 dental implants. It is filed as physicochemical. The conditions noted are these: sonicated 65° C. 10 min, Metal = Ti2p + Al2s + V2p. How it is done: A Titanium grade 23 dental implant (bulk composition atomic concentration Titanium 90%, Aluminum 6%, Vanadium 4%; length 11.0 mm, diameter 3.75 mm) was provided with a roughened surface, produced by sand blasting and acid etching according to industry standards. The dental implant was immersed in 40 ml of a 2% (v/v) aqueous solution of deconex 15 PF-x (which is a phosphate free, potassium hydroxide based standard cleaning agent). The solution was placed in an ultrasonic bath (output frequency 30 kHz) and sonicated at 65° C. for 30 min. The implant was removed from the cleaning agent solution and rinsed with water as follows: 2 times with 40 ml, swirling at room temperature; 4 times with 40 ml, sonicating for 2 min at 65° C.; 1 time with 40 ml, swirling at room temperature. The implant was then placed into 5 ml of a 0.7 mM aqueous solution of 1,1,3,3-propane tetraphosphonic acid. The solution was placed in the ultrasonic bath and sonicated at 65° C. for 10 min. The implant was rinsed with water as follows: 2 times with 10 ml, swirling at room temperature; 1 time with 10 ml, sonicating for 2 min at 65° C.; 1 time with 10 ml, swirling at room temperature. The dental implant was dried in a desiccator over P2O5 and under vacuum (ca 20 mbar) for at least 3 hours.
Ten Titanium grade 23 dental implants (bulk composition atomic concentration Titanium 90%, Aluminum 6%, Vanadium 4%; length 11.0 mm, diameter 3.75 mm) were provided with a roughened surface, produced by sand blasting and acid etching according to industry standards. The dental implants were immersed in 400 ml of a 2% (v/v) aqueous solution of deconex 15 PF-x (which is a phosphate free, potassium hydroxide based standard cleaning agent). The solution was placed in an ultrasonic bath (output frequency 30 kHz) and sonicated at 65° C. for 30 min. The implants were removed from the cleaning agent solution and rinsed with water as follows: 2 times with 400 ml, swirling at room temperature; 4 times with 400 ml, sonicating for 2 min at 65° C.; 1 time with 400 ml, swirling at room temperature. The implants were then placed one after the other into 5 ml of a 0.7 mM aqueous solution of 1,1,3,3-propane tetraphosphonic acid. The solution was placed in the ultrasonic bath and sonicated at 65° C. for 10 min. After the treatment with the phosphonic acid, each implant was rinsed with water as follows: 1 time with 10 ml, swirling at room temperature; 1 time with 10 ml, sonicating for 2 min at 65° C.; 1 time with 10 ml, swirling at room temperature. The dental implants were dried in a desiccator over P2O5 and under vacuum (ca 30 mbar) for at least 3 hours.
A Titanium grade 23 dental implant (bulk composition atomic concentration Titanium 90%, Aluminum 6%, Vanadium 4%; length 13.0 mm, diameter 3.75 mm) was provided with a roughened surface, produced by sand blasting and acid etching according to industry standards. The implant was immersed in 13 ml of a 0.7 mM aqueous solution of 1,1,3,3-propane tetraphosphonic acid. The solution was placed in an ultrasonic bath and sonicated at room temperature for 10 min. The implant was rinsed with water as follows: 1 time with 10 ml, swirling at room temperature; 2 times with 10 ml, sonicating for 1 min at room temperature. The dental implant was dried in a heating oven (ca 70° C.) for at least 1 hour. […]
Following the surface treatment with one phosphonic acid compound as described in Examples 1 to 7 the samples were analyzed by X-ray photoelectron spectroscopy (XPS). […]

The nature of data set [2]: Thickness of phosphonic acid layer by depth profiling using XPS. The conditions noted are these: for Phosphorus/Metal: Metal = Zr3d + Y3d. It counts as physicochemical. How it is done: Two ceramic discs (yttria stabilized zirconia; length 5.0 mm, diameter 1.0 mm) were provided with a roughened surface, produced by sand blasting and acid etching according to industry standards. The discs were immersed in 80 ml of a 2% (v/v) aqueous solution of deconex 15 PF-x (which is a phosphate free, potassium hydroxide based standard cleaning agent). The solution was placed in an ultrasonic bath (output frequency 30 kHz) and sonicated at 70° C. for 15 min. This step was repeated a second time. The discs were removed from the cleaning agent solution and rinsed with water as follows: 2 times with 90 ml, swirling at room temperature; 3 times with 90 ml, sonicating for 2 min at 70° C. The discs were then placed into 2 glass bottles and immersed into 2.5 ml of a 0.7 mM aqueous solution of 1,1,3,3-propane tetraphosphonic acid. The solutions were placed in the ultrasonic bath and sonicated at 70° C. for 60 min. The discs were rinsed with water as follows: 1 time with 10 ml, swirling at room temperature; 1 time with 10 ml, sonicating for 2 min at 65° C.; 1 time with 10 ml, swirling at room temperature. The discs were dried in a desiccator over P2O5 and under vacuum (ca 20 mbar) for at least 3 hours.
Following the surface treatment, the thickness of the phosphonic acid layer was determined by depth profiling using XPS. Ion gun sputtering cycles were alternated with XPS measurements. An ion gun was used to etch the material for a defined period of time. Once turned off, XPS spectra were acquired. The depth profiles were performed using a Kratos AXIS Nova high resolution spectrometer. An Al-standard source was used for the measurement. Depth profile sputtering was performed by scanning a 3.8 keV Ar+ beam at 100 μA extractor current over an area of 4 mm×4 mm. The sputter rate of Ta2O5 standards measured under these conditions (6 nm/min) was used to convert sputter time in approximate sputter depth. Spectra were measured after the following sputtering times: 0, 5, 10, 15, 20, 30, 40, 60 sec. Spectra were peak fitted after background subtraction by assuming a Gaussian/Lorentzian (90-70/10-30) peak shape. All peaks between 0 eV to 1200 eV were inspected.
The phosphorus peak was measured at % atomic concentrations close to the detection limit (0.5%) after 10 seconds of sputtering.

Marks after values point to notes of the source that are not given here.

`O=P(O)(O)C(CC(P(=O)(O)O)P(=O)(O)O)P(=O)(O)O` [1,1,3,3-propane tetraphosphonic acid]: the Phosphorus/Metal was 0.19 in data set [1] (0.7 mM); 0.18 in data set [1] (2 mM); 0.17 in data set [1] (3.5 mM); 0.18 in data set [1] (5 mM); 0.18 in data set [1] (7 mM); 0.18^b in data set [2] (sputtering 0 sec, depth 0 nm). For the same compound, the Phosphorus/Metal is listed as 0.03^b in data set [2] (sputtering 5 sec, depth 0.5 nm); 0.02^b in data set [2] (sputtering 10 sec, depth 1 nm); 0.02^b in data set [2] (sputtering 15 sec, depth 1.5 nm); 0.01^b in data set [2] (sputtering 20 sec, depth 2 nm); 0.02^b in data set [2] (sputtering 30 sec, depth 3 nm); 0.01^b in data set [2] (sputtering 40 sec, depth 4 nm). Also, the Phosphorus/Metal in data set [2] (sputtering 60 sec, depth 6 nm) is recorded as 0.00^b. In addition, the thickness of monolayer result in data set [2] (0.7 mM, sonicated 70° C. 60 min, sputter depth from Ta2O5 standard rate) is “about 1 nm”.
